Test results taken from publication PMC8916643, “Molecular physiology of pumiliotoxin sequestration in a poison frog” (PLoS ONE, 2022).

Key:
[1] = Alkaloid feeding experiment, alkaloid abundance in tissues by LC-MS/MS; assay type: in vivo, Dendrobates tinctorius; settings: DHQ+PTX feeding group; fed orally daily for five days
Source text: (§1) Lab-reared (non-toxic) Dendrobates tinctorius were housed in terraria with live plants, a water pool, and a shelter. Ten adult females were size-matched, randomly assigned to control or experimental groups (N = 5 per group), and then housed individually. To measure the specific effects of PTX 251D compared to a background toxicity, the control group was fed 0.01% DHQ (Sigma-Aldrich, St. Louis, USA) in a solution of 1% EtOH and the experimental group was fed a solution of 0.01% DHQ and 0.01% PTX 251D (PepTech, Burlington, MA, USA) in a solution of 1% EtOH in water. Each frog was fed 15 μL each day for five days by pipetting the solution directly into the mouth between 10am-12pm. On the afternoon of the fifth day, frogs were euthanized by cervical transection and the dorsal skin, liver, intestines, and oocytes were dissected into Trizol (Thermo Fisher Scientific, Waltham, USA).
To isolate alkaloids, 0.3 mL of 100% EtOH was added to 1mL of organic layer from the Trizol RNA extraction, inverted 10 times, and stored at room temperature for 2–3 minutes to precipitate genomic DNA, which was pelleted by centrifugation at 2000g for 5 minutes at 4°C. Then, 300 μL of supernatant was transferred to a new microfuge tube. Proteins were precipitated by adding 900 μL of acetone, mixing by inversion for 10–15 seconds, incubating at room temperature for 10 min, and centrifuging at max speed for 10 min at 4°C. Then, 1 mL of the supernatant containing alkaloids was moved into a glass vial and stored at -20°C until dried down completely under a gentle nitrogen gas flow.
Samples were resuspended in 200 μl of methanol:chloroform 1:1 and 1 μM Nicotine-d3 (used as an internal standard). A 10-point standard curve was prepared in the same solution with DHQ and PTX 251D. A QE+ mass spectrometer coupled to an Ultimate3000 LC (ThermoFisher) was used for analysis. […] The gradient was 0% B for 1 min, then increased to 100% B in 14 min, followed by 5 min at 100% B and 3.5 min at 0% B. Data were quantified using accurate mass, using the standard curve for DHQ and PTX 251D for absolute quantification. aPTX 267A was identified by accurate mass and MS/MS fragmentation similarity to PTX.
R version 3.6.3 was used for all statistical analyses, and all plotting and statistics code is provided in a S1 File. There were instances in the LC-MS/MS data where the molecules of interest (DHQ, PTX 251D, or aPTX 267A) were not detected, and these were converted to zeros prior to statistical analyses and visualization. […] PTX 251D and DHQ were analyzed separately. The abundance of aPTX 267A was approximated using the area-under-the-curve divided by the internal nicotine standard, and as there is no standard for aPTX 267A, exact pmol values could not be calculated. […]

[2] = system: mammalian and insect voltage-gated sodium and potassium channels; set-up: method as in PMID 18061227; settings: 100 μM; strongest effect on hKv1.3; cited from earlier work
mice = mice and insects; cited from earlier work
[3] = system: gene expression in intestines, liver, and skin; assay: RNA sequencing, differential gene expression after PTX 251D feeding; assay type: in vivo, Dendrobates tinctorius
Source text: as §1, with “On the afternoon of the fifth day, frogs were euthanized by cervical transection and the dorsal skin, liver, intestines, and oocytes were dissected into Trizol (Thermo Fisher Scientific, Waltham, USA).” left out
RNA extraction followed the Trizol (Thermo Fisher Scientific, Waltham, MA, USA) protocol outlined in Caty et al. 2019 [16] and according to the manufacturer’s instructions. […] Libraries were quantified with quantitative PCR (NEBnext Library quantification kit, New England Biolabs, Ipswich, USA) and a Agilent Bioanalyzer High Sensitivity DNA chip, both according to manufacturer’s instructions. All libraries were pooled at equimolar amounts and were sequenced on four lanes of an Illumina HiSeq 4000 machine to obtain 150 bp paired-end reads. […]

CCCCC(C)C=C1CN2CCCC2C(C)(O)C1 (centres unmarked) [PTX 251D, pumiliotoxin (PTX 251D)]
PTX 251D abundance by tissue and treatment [1]: highest levels in the liver and skin | effect on voltage-gated sodium and potassium channels [2]: inhibits both types of channels | toxic effects (mice): pain, hyperactivity, convulsions and death | expression of CYP2D6-like contig ([3]; intestines of frogs fed PTX 251D): upregulated | CYP3A29 expression log2FC ([3]; intestines, DHQ+PTX vs DHQ): 5.72
